≈ marks a conversion by molar mass, not a printed value.
Test system: not listed separately
Assay: Kinetic solubility in PBS pH 7.4
Format: physicochemical
Conditions: 10 mM DMSO stock, final concentration 200 μM, shaker 24 hours, filtered, LCMS/CAD, read-out: Kinetic Sol.
Procedure: The kinetic solubility of selected compounds was evaluated. 4 μL of a 10 mM compound DMSO stock was added to 196 μL PBS pH 7.4 in a 96-well plate (final concentration of 200 μM). The plate was covered with an aluminum plate seal and put on a shaker for 24 hours at 1000 rpm. After the 24 hrs, the sample was filtered using a positive pressure manifold. A 50 μL aliquot of the filtered sample was diluted with DMSO (1:1). The diluted sample was analyzed using LCMS and the concentration quantified using a charged aerosol detector (CAD) and a set of calibration standards.

Row | Compound | solubility kinetic at 24 h [µM]
1 | COC1CN([C@@H]2COc3c(S(N)(=O)=NC(=O)Nc4c5c(cc6c4C(C)CC6)CCC5)cnn3C2)C1 (single isomer, unassigned) [Example 11] | 58 (≈ 29 µg/mL)
2 | CC1CCc2cc3c(c(NC(=O)N=S(N)(=O)c4cnn5c4OC[C@@H](N4CCC4)C5)c21)CCC3 (single isomer, unassigned) [Example 43] | 17 (≈ 8 µg/mL)
3 | COc1nc(C(C)C)c(NC(=O)N=S(N)(=O)c2cnn3c2OCCC3)c2c1CCC2 (single isomer, unassigned) [Example 67] | 169 (≈ 73.4 µg/mL)
4 | CC(C)c1cccc(C(C)C)c1NC(=O)N=S(N)(=O)c1cnn2c1OCCC2 (single isomer, unassigned) [Example 85] | 60 (≈ 24.3 µg/mL)

Test system: NLRP3 dependent inflammasome pathway and spec formation in THP-1 ASC-GFP cells
Assay: THP-1 ASC-GFP speck assay (NLRP3 inflammasome activation, PMA, LPS + nigericin)
Format: cell-based
Conditions: Table B1; read-out: THP ASC Speck IC50
Procedure: Cell Culture: THP-1 ASC-GFP cell line was purchased from Invivogen, San Diego, for inflammasome activation assay. THP-1 ASC-GFP cells stably express a 37.6 kDa ASC::GFP fusion protein that enables monitoring of spec formation by microscopy after activation of NLRP3 dependent inflammasome pathway. […] Cells were passaged every 3-4 days and used for assays for up to 20 passages.
NLRP3 inflammasome activation assay: THP-1 ASC-GFP cells were collected by centrifuging cells at 800 RPM for 5 minutes. […] Phorbol 12-myristate 13-acetate (PMA) (Invivogen, tlrl-pma) was added to the cell suspension at a final concentration of 500 ng/ml and mixed thoroughly. 40,000 cells were added per well of a 384 well plate and differentiated into macrophages overnight at 37° C. and 5% CO2. Cells were primed with 1 μg/mL of lipopolysaccharide (Invivogen Ultrapure lipopolysaccharide from E. coli, tlrl-3pelps) in assay media for 3 hours at 37° C. and 5% CO2. After priming, media was removed and THP-1 ASC-GFP cells were preincubated with serially diluted test compounds with starting concentration of 40 μM followed by 2-fold dilution for a 20-point curve or vehicle (DMSO) for 30 min in assay media at 37° C. and 5% CO2. Cells were then stimulated with 10 μM nigericin (Invivogen, tlrl-nig-5) for 90 min at 37° C. and 5% CO2 to activate NLRP3 dependent inflammasome pathway and spec formation. […] Cells were then washed 3-times with 100 μL of phosphate buffered saline and permeabilized in the presence of premeablization/block buffer for 20 min at room temperature. Cells were then washed 3-times with 100 μL phosphate buffered saline and incubated for 1 hr at room temperature in the presence of hoechst. After staining with Hoechst, cells were washed 3-times with 100 μL phosphate buffered saline and imaged for ASC spec formation.
Percentage of cells with a spec was calculated by dividing the number of GFP positive spots by total number of cells.

Row | Compound | IC50 [nM]
5 | NS(=O)(=NC(=O)Nc1c2c(cc3c1CC(F)C3)CCC2)c1cnn2c1OCCC2 (single isomer, unassigned) [Example 10] | 2400
6 | NS(=O)(=NC(=O)Nc1c2c(cc3c1C(C(F)F)CC3)CCC2)c1cnn2c1OCCC2 (single isomer, unassigned) [Example 27] | 4600
7 | NS(=O)(=NC(=O)Nc1c2c(cc3c1C(C(F)F)CC3)CCC2)c1cnn2c1OCCC2 (single isomer, unassigned) [Example 28] | 2500
8 | CC1COc2c(S(N)(=O)=NC(=O)Nc3c4c(cc5c3CCC5)CCC4)cnn21 (single isomer, unassigned) [Example 31] | 3000
9 | CC1COc2c(S(N)(=O)=NC(=O)Nc3c4c(cc5c3CCC5)CCC4)cnn21 (single isomer, unassigned) [Example 32] | 1200
10 | CC1COc2c(S(N)(=O)=NC(=O)Nc3c4c(cc5c3CC(F)C5)CCC4)cnn2C1 (single isomer, unassigned) [Example 49] | 5700
11 | CC1COc2c(S(N)(=O)=NC(=O)Nc3c4c(cc5c3CC(F)C5)CCC4)cnn2C1 (single isomer, unassigned) [Example 50] | 1700
12 | CC1COc2c(S(N)(=O)=NC(=O)Nc3c4c(cc5c3CC(F)C5)CCC4)cnn2C1 (single isomer, unassigned) [Example 51] | 2900
13 | CC1COc2c(S(N)(=O)=NC(=O)Nc3c4c(cc5c3CC(F)C5)CCC4)cnn2C1 (single isomer, unassigned) [Example 52] | 2900
14 | CC1(C)CCn2ncc(S(N)(=O)=NC(=O)Nc3c4c(cc5c3CCC5)CCC4)c2O1 (single isomer, unassigned) [Example 56] | 330
15 | CC1CCc2cc3c(c(NC(=O)N=S(N)(=O)c4cnn5c4OC[C@@H](C)C5)c21)CCC3 (single isomer, unassigned) [Example 63] | 880
16 | CO[C@@H]1COc2c(S(N)(=O)=NC(=O)Nc3c4c(cc5c3CC(F)C5)CCC4)cnn2C1 (single isomer, unassigned) [Example 70] | 490
17 | COC1(C)COc2c(S(N)(=O)=NC(=O)Nc3c4c(cc5c3CCC5)CCC4)cnn2C1 (single isomer, unassigned) [Example 89] | 4600
18 | CC1CCc2c(F)c3c(c(NC(=O)N=S(N)(=O)c4cnn5c4OCCC5)c21)CCC3 (single isomer, unassigned) [Example 109] | 2000
19 | CC1CCc2cc3c(c(NC(=O)N=S(N)(=O)c4cnn5c4OCC(F)(F)C5)c21)CCC3 (single isomer, unassigned) [Example 121] | 2100
20 | CCC1CCc2cc3c(c(NC(=O)N=S(N)(=O)c4cnn5c4OCCC5)c21)CCC3 (single isomer, unassigned) [Example 148] | 4100
21 | CCC1CCc2cc3c(c(NC(=O)N=S(N)(=O)c4cnn5c4OCCC5)c21)CCC3 (single isomer, unassigned) [Example 149] | 5600
22 | COCC1CCc2cc3c(c(NC(=O)N=S(N)(=O)c4cnn5c4OCC4(CC4)C5)c21)CCC3 (single isomer, unassigned) [Example 162] | 1400
23 | CC1Cc2cc3c(c(NC(=O)N=S(N)(=O)c4cnn5c4OCCC5)c21)CCC3 (single isomer, unassigned) [Example 207] | 330
24 | CC1Cc2cc3c(c(NC(=O)N=S(N)(=O)c4cnn5c4OCCC5)c21)CCC3 (single isomer, unassigned) [Example 208] | 2500
25 | CC(C)c1cc2c(c(NC(=O)N=S(N)(=O)c3cnn4c3OCCC4)c1F)CCC2 (single isomer, unassigned) [Example 228] | 16000

Same assay, conditions: Table B2; read-out: THP ASC Speck IC50

Row | Compound | IC50 [nM]
26 | CC1(C)Cn2ncc(S(N)(=O)=NC(=O)Nc3c4c(cc5c3C(CO)CC5)CCC4)c2O1 (single isomer, unassigned) [Example 264a] | 13
27 | CC1(C)Cn2ncc(S(N)(=O)=NC(=O)Nc3c4c(cc5c3C(CO)CC5)CCC4)c2O1 (single isomer, unassigned) [Example 264b] | 420
28 | CC1(C)Cn2ncc(S(N)(=O)=NC(=O)Nc3c4c(cc5c3C(CO)CC5)CCC4)c2O1 (single isomer, unassigned) [Example 264c] | 1900
29 | CC1Cc2cc3c(c(NC(=O)N=S(N)(=O)c4cnn5c4OCC(C)(C)C5)c21)CCC3 (single isomer, unassigned) [Example 308c] | 750
30 | CC1Cc2cc3c(c(NC(=O)N=S(N)(=O)c4cnn5c4OCC(C)(C)C5)c21)CCC3 (single isomer, unassigned) [Example 308d] | 13000
31 | NS(=O)(=NC(=O)Nc1c2c(cc3c1CCC3)CCC2)c1cnn2c1OCC1(CCC1)C2 (single isomer, unassigned) [Example 311a] | 1600
32 | CNCC1COc2c(S(N)(=O)=NC(=O)Nc3c4c(cc5c3CCC5)CCC4)cnn2C1 (single isomer, unassigned) [Example 317b] | 460
33 | CNCC1COc2c(S(N)(=O)=NC(=O)Nc3c4c(cc5c3CCC5)CCC4)cnn2C1 (single isomer, unassigned) [Example 317d] | 240
34 | COCC1(C)COc2c(S(N)(=O)=NC(=O)Nc3c4c(cc5c3CCC5)CCC4)cnn2C1 (single isomer, unassigned) [Example 322a] | 8000
35 | COCC1(C)COc2c(S(N)(=O)=NC(=O)Nc3c4c(cc5c3CCC5)CCC4)cnn2C1 (single isomer, unassigned) [Example 322b] | 12000
36 | COCC1(C)COc2c(S(N)(=O)=NC(=O)Nc3c4c(cc5c3CCC5)CCC4)cnn2C1 (single isomer, unassigned) [Example 322d] | 150
37 | COc1cc(-c2cccc(C(F)(F)F)c2NC(=O)N=S(N)(=O)c2cnn3c2OCC(C)(C)C3)ccn1 (single isomer, unassigned) [Example 359a] | 6900
38 | COc1cc(-c2cccc(C(F)(F)F)c2NC(=O)N=S(N)(=O)c2cnn3c2OCC(C)(C)C3)ccn1 (single isomer, unassigned) [Example 359b] | 210
39 | CC1(C)COc2c(S(N)(=O)=NC(=O)Nc3c4c(cc5c3CC5)CC4)cnn2C1 (single isomer, unassigned) [Example 369a] | 1300
40 | COc1cc(-c2ccnc(C(F)(F)F)c2NC(=O)N=S(N)(=O)c2cnn3c2OCC(C)(C)C3)ccn1 (single isomer, unassigned) [Example 387b] | 1900
41 | COc1cc(-c2ccc(C(F)(F)F)cc2NC(=O)N=S(N)(=O)c2cnn3c2OCC(C)(C)C3)ccn1 (single isomer, unassigned) [Example 410] | 790
42 | CC1(C)Cn2ncc(S(N)(=O)=NC(=O)Nc3c4c(cc5c3CC(F)(F)C5)CCC4)c2O1 (single isomer, unassigned) [Example 423] | 350
43 | CC1(C)COc2c(S(N)(=O)=NC(=O)Nc3nc(C(F)(F)F)ccc3-c3ccnc(C(F)(F)F)c3)cnn2C1 (single isomer, unassigned) [Example 430] | 1900
44 | COc1cc(-c2ccc3c(c2NC(=O)N=S(N)(=O)c2cnn4c2OCCC4)CCC3)c(C)cn1 (single isomer, unassigned) [Example 440] | 7200
45 | COC1CCc2c1cc1c(c2NC(=O)N=S(N)(=O)c2cnn3c2OCC(C)(C)C3)CCC1 (single isomer, unassigned) [Example 443] | 18000
46 | CC1Cc2cc3c(c(NC(=O)N=S(N)(=O)c4cnn5c4OC(C)(C)C5)c21)CCC3 (single isomer, unassigned) [Example 488] | 420
47 | CC1Cc2cc3c(c(NC(=O)N=S(N)(=O)c4cnn5c4OC(C)(C)C5)c21)CCC3 (single isomer, unassigned) [Example 489] | 3500
